Experiment: Henry solubility constant Hcp at 293 K (mol/(m3 Pa))
Conditions: reference: Murphy et al. (1987)

SMILES	Henry solubility constant Hcp at 293 K
Clc1ccc(-c2c(Cl)c(Cl)cc(Cl)c2Cl)c(Cl)c1Cl [2,2',3,3',4,5',6'-heptachlorobiphenyl]	0.3
Clc1cc(Cl)c(Cl)c(-c2ccc(Cl)c(Cl)c2Cl)c1 [2,2',3,3',4,5'-hexachlorobiphenyl]	0.092
Clc1cc(-c2c(Cl)ccc(Cl)c2Cl)c(Cl)c(Cl)c1Cl [2,2',3,3',4,5,6'-heptachlorobiphenyl]	0.2
Clc1cc(Cl)c(-c2c(Cl)ccc(Cl)c2Cl)c(Cl)c1Cl [2,2',3,3',4,6,6'-heptachlorobiphenyl]	0.11
Clc1cccc(-c2c(Cl)cc(Cl)c(Cl)c2Cl)c1Cl [2,2',3,3',4,6-hexachlorobiphenyl]	0.15
Clc1cccc(-c2ccc(Cl)c(Cl)c2Cl)c1Cl [2,2',3,3',4-pentachlorobiphenyl]	0.084
Clc1cc(Cl)c(Cl)c(-c2c(Cl)ccc(Cl)c2Cl)c1 [2,2',3,3',5,6'-hexachlorobiphenyl]	0.07
Clc1cc(Cl)c(Cl)c(-c2cccc(Cl)c2Cl)c1 [2,2',3,3',5-pentachlorobiphenyl]	0.06
Clc1ccc(Cl)c(-c2c(Cl)ccc(Cl)c2Cl)c1Cl [2,2',3,3',6,6'-hexachlorobiphenyl]	0.044
Clc1cccc(-c2c(Cl)ccc(Cl)c2Cl)c1Cl [2,2',3,3',6-pentachlorobiphenyl]	0.057
Clc1cccc(-c2cccc(Cl)c2Cl)c1Cl [2,2',3,3'-tetrachlorobiphenyl]	0.061
Clc1cc(Cl)c(-c2c(Cl)ccc(Cl)c2Cl)cc1Cl [2,2',3,4',5',6-hexachlorobiphenyl]	0.067
Clc1cc(Cl)c(-c2cccc(Cl)c2Cl)cc1Cl [2,2',3,4',5'-pentachlorobiphenyl]	0.066
Clc1cc(Cl)c(-c2c(Cl)c(Cl)cc(Cl)c2Cl)cc1Cl [2,2',3,4',5,5',6-heptachlorobiphenyl]	0.12
Clc1cc(Cl)c(Cl)c(-c2cc(Cl)c(Cl)cc2Cl)c1 [2,2',3,4',5,5'-hexachlorobiphenyl]	0.11
Clc1ccc(-c2c(Cl)ccc(Cl)c2Cl)c(Cl)c1 [2,2',3,4',6-pentachlorobiphenyl]	0.036
Clc1ccc(-c2cccc(Cl)c2Cl)c(Cl)c1 [2,2',3,4'-tetrachlorobiphenyl]	0.05
Clc1cc(Cl)c(-c2c(Cl)cc(Cl)c(Cl)c2Cl)cc1Cl [2,2',3,4,4',5',6-heptachlorobiphenyl]	0.15
Clc1cc(Cl)c(-c2ccc(Cl)c(Cl)c2Cl)cc1Cl [2,2',3,4,4',5'-hexachlorobiphenyl]	0.13
Clc1ccc(-c2cc(Cl)c(Cl)c(Cl)c2Cl)c(Cl)c1 [2,2',3,4,4',5-hexachlorobiphenyl]	0.15
Clc1ccc(-c2ccc(Cl)c(Cl)c2Cl)c(Cl)c1 [2,2',3,4,4'-pentachlorobiphenyl]	0.06

SMILES	Henry solubility constant Hcp at 293 K
Clc1ccc(Cl)c(-c2c(Cl)cc(Cl)c(Cl)c2Cl)c1 [2,2',3,4,5',6-hexachlorobiphenyl]	0.07
Clc1ccc(Cl)c(-c2cc(Cl)c(Cl)c(Cl)c2Cl)c1 [2,2',3,4,5,5'-hexachlorobiphenyl]	0.1
Clc1ccccc1-c1ccc(Cl)c(Cl)c1Cl [2,2',3,4-tetrachlorobiphenyl]	0.049
Clc1ccc(Cl)c(-c2c(Cl)ccc(Cl)c2Cl)c1 [2,2',3,5',6-pentachlorobiphenyl]	0.05
Clc1ccc(Cl)c(-c2cccc(Cl)c2Cl)c1 [2,2',3,5'-tetrachlorobiphenyl]	0.052
Clc1cccc(-c2c(Cl)cccc2Cl)c1Cl [2,2',3,6'-tetrachlorobiphenyl]	0.038
Clc1ccccc1-c1cccc(Cl)c1Cl [2,2',3-trichlorobiphenyl]	0.041
Clc1cc(Cl)c(-c2cc(Cl)c(Cl)cc2Cl)cc1Cl [2,2',4,4',5,5'-hexachlorobiphenyl]	0.1
Clc1ccc(-c2cc(Cl)c(Cl)cc2Cl)c(Cl)c1 [2,2',4,4',5-pentachlorobiphenyl]	0.046
Clc1ccc(-c2cc(Cl)ccc2Cl)c(Cl)c1 [2,2',4,5'-tetrachlorobiphenyl]	0.036
Clc1ccc(Cl)c(-c2cc(Cl)c(Cl)cc2Cl)c1 [2,2',4,5,5'-pentachlorobiphenyl]	0.055
Clc1cc(Cl)c(-c2ccccc2Cl)cc1Cl [2,2',4,5-tetrachlorobiphenyl]	0.039
Clc1ccc(-c2ccccc2Cl)c(Cl)c1 [2,2',4-trichlorobiphenyl]	0.03
Clc1ccc(Cl)c(-c2cc(Cl)ccc2Cl)c1 [2,2',5,5'-tetrachlorobiphenyl]	0.041
Clc1ccc(Cl)c(-c2ccccc2Cl)c1 [2,2',5-trichlorobiphenyl]	0.033
Clc1ccccc1-c1c(Cl)cccc1Cl [2,2',6-trichlorobiphenyl]	0.033
Clc1ccccc1-c1ccccc1Cl [2,2'-dichlorobiphenyl]	0.033
Clc1ccccc1-c1cc(Cl)c(Cl)c(Cl)c1 [2,3',4',5'-tetrachlorobiphenyl]	0.077
Clc1ccc(Cl)c(-c2cc(Cl)c(Cl)c(Cl)c2)c1 [2,3',4',5,5'-pentachlorobiphenyl]	0.19
Clc1ccc(Cl)c(-c2ccc(Cl)c(Cl)c2)c1 [2,3',4',5-tetrachlorobiphenyl]	0.052
Clc1ccc(-c2ccccc2Cl)cc1Cl [2,3',4'-trichlorobiphenyl]	0.044

SMILES	Henry solubility constant Hcp at 293 K
Clc1ccc(-c2cc(Cl)c(Cl)cc2Cl)cc1Cl [2,3',4,4',5-pentachlorobiphenyl]	0.12
Clc1ccc(-c2ccc(Cl)c(Cl)c2)c(Cl)c1 [2,3',4,4'-tetrachlorobiphenyl]	0.049
Clc1cccc(-c2ccc(Cl)cc2Cl)c1 [2,3',4-trichlorobiphenyl]	0.024
Clc1cccc(-c2cc(Cl)ccc2Cl)c1 [2,3',5-trichlorobiphenyl]	0.029
Clc1cccc(-c2c(Cl)cccc2Cl)c1 [2,3',6-trichlorobiphenyl]	0.035
Clc1cccc(-c2ccccc2Cl)c1 [2,3'-dichlorobiphenyl]	0.032
Clc1cc(-c2cccc(Cl)c2Cl)cc(Cl)c1Cl [2,3,3',4',5'-pentachlorobiphenyl]	0.16
Clc1cc(Cl)c(Cl)c(-c2ccc(Cl)c(Cl)c2)c1 [2,3,3',4',5-pentachlorobiphenyl]	0.17
Clc1ccc(-c2c(Cl)ccc(Cl)c2Cl)cc1Cl [2,3,3',4',6-pentachlorobiphenyl]	0.093
Clc1ccc(-c2cccc(Cl)c2Cl)cc1Cl [2,3,3',4'-tetrachlorobiphenyl]	0.061
Clc1ccc(-c2c(Cl)cc(Cl)c(Cl)c2Cl)cc1Cl [2,3,3',4,4',6-hexachlorobiphenyl]	0.23
Clc1ccc(-c2cc(Cl)cc(Cl)c2Cl)cc1 [2,3,4',5-tetrachlorobiphenyl]	0.034
Clc1ccc(-c2c(Cl)ccc(Cl)c2Cl)cc1 [2,3,4',6-tetrachlorobiphenyl]	0.058
Clc1ccc(-c2ccc(Cl)c(Cl)c2Cl)cc1 [2,3,4,4'-tetrachlorobiphenyl]	0.061
Clc1ccc(Cl)c(-c2ccccc2)c1Cl [2,3,6-trichlorobiphenyl]	0.031
Clc1ccc(-c2cc(Cl)ccc2Cl)cc1 [2,4',5-trichlorobiphenyl]	0.037
Clc1ccc(-c2ccccc2Cl)cc1 [2,4'-dichlorobiphenyl]	0.035
Clc1ccc(-c2ccccc2)c(Cl)c1 [2,4-dichlorobiphenyl]	0.027
Clc1ccc(-c2ccc(Cl)c(Cl)c2)cc1 [3,4,4'-trichlorobiphenyl]	0.065

From Sander's compilation of Henry's law constants (doi:10.1021/es00156a005)
